# Test results published in article PMC9981206 (Cancer Research Communications, 2022).
# Values joined by “and” are separate entries in the source; they are usually repeats but may differ in a detail not shown here. Equal values may be shown once. Read-outs that look alike come from different tables or passages of the source.
# Tests used:
# UO-31 cells = test: MTS colorimetric cell growth assay, UO-31; assay type: cell-based, human
# From the text: (§1) The cell cultures were kept below 20 passages (∼10 weeks) and routinely monitored (upon thawing and monthly) for Mycoplasma infections with MycoAlert Mycoplasma Detection Kit (Lonza). All cell lines were authenticated by short tandem repeat profiling to confirm their identity (Eurofins). TNKS1/2 and PARP1 biochemical assays ([27, 32]), luciferase-based WNT/β-catenin signaling pathway reporter assay ([22, 27, 32]), anti-proliferative assays, and NCI-60 tumor cell line panel screen ([7]), immunoblot analyses ([7, 32, 39]), RNA isolation, and real-time qRT-PCR ([7, 27, 39, 40]) were performed as previously described.
# (§2) Prostate (Pro) and central nervous system (CNS). […] Mean ± SD values for data from one representative experiment of more than three repeated assays, each with six replicates, are shown. C, Evaluation of WNT/β-catenin signaling. Left, immunoblots of cytoplasmic AXIN1 and nuclear active form of β-catenin [non-phospho (Ser33/37/Thr41)] and total β-catenin. Lamin B1 loading controls are duplicated for OVCAR-4 immunoblots. Right, real-time RT-qPCR analysis of the WNT/β-catenin signaling target gene AXIN2. […] Immunoblots show representative data from two or more independent experiments. Actin (cytoplasm) and lamin B1 (nucleus) were used as loading controls. […]
# [1] = Mouse pharmacokinetic analysis; assay type: in vivo; details: CD-1 mice; for MRT last: read-out: MRT(0-24); for CL/F: read-out: Cl or Cl/F (converted); for bioavailability: read-out: F (fraction absorbed/bioavailability)
# Method: The pharmacokinetic analyses were performed according to the standard protocols of Medicilon as previously described ([22, 27, 32]). […] The same vehicle and oral–twice daily treatment regime were used for all other experiments. Samples were collected after 15 and 30 minutes plus 1, 2, 4, and 6 hours for group 1, and after 6.5, 8, 10, and 24 hours for group 2.
# in vivo = assay type: in vivo, CB17-SCID mice; details: CB17-SCID, mouse, doses 0.33–10 mg/kg oral twice daily, 4 hours post last dosing, mass spectrometry
# Method: (§3) The experiment using COLO 320DM (CCL-220, RRID: CVCL_0219, ATCC) xenografts was carried out as previously described ([40]) at Reaction Biology. […] Next, the mice were sacrificed, approximately 4 hours after first dose of the day. Protein and RNA extracts were prepared from four moderately sized tumors within each treatment group.
# COLO 320DM xenografts = test: in vivo; assay type: in vivo, CB17-SCID mice; details: for body weight changes: tumor-bearing CB17-SCID mice
# Method: as §3
# B16-F10 tumors = test: B16-F10 mouse melanoma model
# Method: The experiment using B16-F10 tumors was carried out as previously described ([39]) at Reaction Biology. […] Next, the mice were sacrificed, approximately 8 hours after last dosing. Protein and RNA extracts were prepared from 8 tumors within each treatment group.
# WNT/β-catenin signaling = test: Immunoblot and real-time qRT-PCR, WNT/β-catenin signaling in cancer cell lines; assay type: cell-based, human; details: 10 nmol/L, 24 hours
# From the text: as §1
# Prostate (Pro) and central nervous system (CNS). […] Mean ± SD values for data from one representative experiment of more than three repeated assays, each with six replicates, are shown. C, Evaluation of WNT/β-catenin signaling. Left, immunoblots of cytoplasmic AXIN1 and nuclear active form of β-catenin [non-phospho (Ser33/37/Thr41)] and total β-catenin. Lamin B1 loading controls are duplicated for OVCAR-4 immunoblots. Right, real-time RT-qPCR analysis of the WNT/β-catenin signaling target gene AXIN2. […] Immunoblots show representative data from two or more independent experiments. Actin (cytoplasm) and lamin B1 (nucleus) were used as loading controls. Boxplots show median, first, and third quartiles and maximum and minimum whiskers for combined data from three independent experiments with three replicates each. Stippled lines (black) depict control mean values = 1. Two-tailed t tests: ***, P < 0.001; **, P < 0.01; and *, P < 0.05. Mann–Whitney rank sum tests: ‡, P < 0.01. ns., not significant. D, Evaluation of YAP signaling. Left, immunoblots of cytoplasmic AMOTL2 (top) and nuclear YAP and TAZ (bottom). Right, real-time RT-qPCR analysis of the YAP signaling target genes AMOTL2, CCN1, and […]. For D and E, lamin B1 loading controls are duplicated for RKO immunoblots (YAP/TAZ and CCND1). E, Evaluation of MYC signaling. Left, immunoblots of nuclear MYC and CCND1. Lamin B1 loading controls are duplicated for ABC-1 immunoblots. […]
# YAP signaling = test: Immunoblot and real-time qRT-PCR, YAP signaling in cancer cell lines; assay type: cell-based, human; details: 10 nmol/L, 24 hours
# From the text: as §1, §2
# MYC signaling = test: Immunoblot and real-time qRT-PCR, MYC signaling in cancer cell lines; assay type: cell-based, human; details: 10 nmol/L, 24 hours, all TNKSi-sensitive cell lines
# From the text: as §1, §2
# [2] = test system: COLO 320DM colon carcinoma cells; details: cited from earlier work
# [3] = test system: RKO colon carcinoma cells; details: 5 days of cultivation; cited from earlier work
# [4] = Dose escalation experiment (acute toxicity, MTD); details: 500, 1,000, 1,500, or 2,000 mg/kg oral twice daily, single male CD-1 mice
# Method: The dose escalation experiment was performed in single male CD-1 mice (CRL: 022, RRID: IMSR_CRL: 022, Charles River) at BSL BIOSERVICE/Eurofins using their standard protocol. […] Body weight was recorded daily.
# [5] = mouse, plasma, 0.4 mg/kg IV BID
# [6] = mouse, plasma, 100 mg/kg PO BID
# [7] = 10 mg/kg oral twice daily, immunoblot
structure (smiles),measurement,setting,value
CCOc1ccc(-c2nnc([C@H]3C[C@H](NC(=O)c4cccc5nccnc45)C3)n2-c2ccccc2F)nc1 [OM-153],GI50,"UO-31 cells; Homo sapiens, UO-31, 120 h",> 10 nM
same,GI25,"UO-31 cells; UO-31, 5 days",3.5 nmol/L
same,Cmax2,[1]; 10 mg/kg PO BID,"2,700 ng/mL"
same,Cmax2 (plasma concentration after the second dose),[1]; 10 mg/kg oral twice daily,5.3 µmol/L
same,plasma concentration after 24 hours,[1]; 10 mg/kg oral twice daily,below the detection threshold
same,Cmax2,[1]; 100 mg/kg PO BID,"20,000 ng/mL"
same,Cmax2 (plasma concentration after the second dose),[1]; 100 mg/kg oral twice daily,39.2 µmol/L
same,half-life,[1]; [5],35.4 min
same,MRT last,[1]; [5],3.6 h
same,half-life,"[1]; mouse, plasma, 2 mg/kg IV BID",33.6 min
same,MRT last,"[1]; mouse, plasma, 2 mg/kg IV BID",3.5 h
same,half-life,"[1]; mouse, plasma, 10 mg/kg PO BID",162 min
same,CL/F,"[1]; mouse, plasma, 10 mg/kg PO BID",16.7 mL/min/kg
same,bioavailability,"[1]; mouse, plasma, 10 mg/kg PO BID",100%
same,MRT last,"[1]; mouse, plasma, 10 mg/kg PO BID",5.8 h
same,half-life,[1]; [6],354 min
same,CL/F,[1]; [6],18.3 mL/min/kg
same,bioavailability,[1]; [6],130%
same,MRT last,[1]; [6],8.4 h
same,concentration at 24 h,"[1]; mouse, plasma, 100 mg/kg oral twice daily, read-out: plasma concentration after 24 hours",1900 ng/mL and 3.7 µM
same,concentration at 4 h,in vivo; plasma,> 10 nM
same,concentration at 4 h,in vivo; tumor,> 10 nM
same,body weight changes,COLO 320DM xenografts; 10 mg/kg oral twice daily,no changes in body weights that would be suggestive for toxicity
same,body weight changes,COLO 320DM xenografts; 3.3 and 1 mg/kg oral twice daily,statistically significant body weight reductions
same,"β-catenin protein and WNT/β-catenin signaling target genes DKK1, APCDD1, NKD1 in tumors","COLO 320DM xenografts; immunoblot and real-time qRT-PCR, oral twice daily",dose-dependently reduced
same,AXIN1 and AXIN2 proteins in the tumor specimen,"COLO 320DM xenografts; immunoblot, oral twice daily",stabilized
same,AXIN1 protein in tumors,B16-F10 tumors; [7],significant stabilization
same,β-catenin in tumors,B16-F10 tumors; [7],insignificant downregulation
same,transcription of the target gene Axin2 in tumors,"B16-F10 tumors; 10 mg/kg oral twice daily, real-time qRT-PCR",significantly decreased
same,tumor end volume inhibition compared with the vehicle control,"B16-F10 tumors; 0.1–10 mg/kg OM-153 oral twice daily in combination with anti–PD-1 (10 mg/kg i.p. day 6, 9, 12)",51%–65%
same,body weights,"B16-F10 tumors; any of the treatment groups, day 6 through 20",No alterations in body weights
same,"antitumor effect, monotherapy controls","B16-F10 tumors; monotherapy, 10 mg/kg",did not exert any significant antitumor effects
same,transcription of AXIN2,"WNT/β-catenin signaling; COLO 320DM, OVCAR-4 and ABC-1 cells",significantly reduced
same,AXIN1 protein,"WNT/β-catenin signaling; all cell lines (COLO 320DM, UO-31, OVCAR-4, ABC-1, RKO)",stabilized
same,transcriptionally active form of β-catenin in the nuclei,WNT/β-catenin signaling; only in COLO 320DM and ABC-1 cells,reduction
same,"transcription of YAP signaling target genes AMOTL2, CCN1 and CCN2",YAP signaling; all TNKSi-sensitive cell lines,reduced transcription
same,AMOTL2 protein,YAP signaling; all cell lines,cytoplasmic stabilization
same,MYC and CCND1 protein and transcription of MYC and CCND1,MYC signaling,decreased
same,COLO320DM GI25,[2]; 5 days of cultivation,2.5 nmol/L
same,GI50,"[2]; 5 days of cultivation, read-out: COLO320DM GI50",10 nM
same,COLO 320DM in vitro GI50 value,[2]; same value as 10 nmol/L,5.1 ng/mL
same,GI50,[3],> 10 µM
same,RKO GI25,[3],"> 10,000 nmol/L"
same,clinical signs of systemic toxicity,[4],No clinical signs of systemic toxicity
